Among the test systems are CCRF-CEM leukemia; SW-620 colon; SN12C renal; TK-10 renal; HCT-116 colon; HOP-62 NSCLC; OVCAR-3 ovarian; RPMI-8226 leukemia; 786-0 renal; HT29 colon; NCI-H522 lung; MALME-3M melanoma.
Assay in all cases: growth of human tumour cells (NCI), 48 h

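These data come from cells grown in 96-well plates and exposed to compound for 48 hours at five concentrations. The concentration for 50% growth inhibition is given as GI50. TGI denotes the concentration required for complete inhibition of growth.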

As to `Brc1ccc(-c2ccc(-c3ccc(Br)s3)s2)s1`, the TGI with CCRF-CEM leukemia, in the assay on SW-620 colon, in the assay on SN12C renal, in the assay on TK-10 renal, in the assay on HCT-116 colon and with HOP-62 NSCLC was greater than 100 µM in each case. The TGI in the assay on OVCAR-3 ovarian, with RPMI-8226 leukemia, in the assay on 786-0 renal and with HT29 colon was greater than 100 µM in each case.

As to `N#Cc1nn(-c2ccc(Cl)cc2)c(N)c2c(=N)n3nc(-c4ccccc4)cc3nc12`, the TGI in the assay with CCRF-CEM leukemia, in the assay with NCI-H522 lung, with SW-620 colon, in the assay with SN12C renal, with TK-10 renal and in the assay on HCT-116 colon was greater than 100 µM in each case. For the same compound, the TGI is greater than 33.8 µM in the assay on HOP-62 NSCLC, greater than 35.5 µM with OVCAR-3 ovarian, greater than 100 µM with 786-0 renal and greater than 32.8 µM with HT29 colon. Further, the GI50 in the assay on NCI-H522 lung was 36.4 µM.

For `CC1CCN(c2nnc(Cl)cc2C(=O)c2ccccc2)CC1`, the TGI was 45.9 µM with CCRF-CEM leukemia; 77.7 µM in the assay on NCI-H522 lung; 59.6 µM with SW-620 colon; greater than 100 µM in the assay with SN12C renal; greater than 100 µM in the assay with TK-10 renal; greater than 100 µM in the assay with HCT-116 colon. Besides, the TGI is greater than 100 µM in the assay on HOP-62 NSCLC, 71 µM with OVCAR-3 ovarian, greater than 100 µM in the assay with 786-0 renal and 39.5 µM in the assay with HT29 colon.

In the case of `C[C@H](NC(=O)OC1C2C=CC(O)C1CC2)c1ccccc1` (stereo not given in full), the TGI with CCRF-CEM leukemia, in the assay with NCI-H522 lung, with SN12C renal, with TK-10 renal, in the assay with HCT-116 colon and with HOP-62 NSCLC was greater than 100 µM each time. For the same compound, the TGI was greater than 100 µM with OVCAR-3 ovarian, greater than 100 µM in the assay with MALME-3M melanoma, 48.6 µM in the assay on RPMI-8226 leukemia and greater than 100 µM in the assay on 786-0 renal.

`CC1OC(OC2C(CO)OC(O[C@H]3CC[C@@]4(C)C(=CC[C@H]5[C@@H]6C[C@@H]7O[C@](O)(CC[C@@H](C)COC8OC(CO)C(O)C(O)C8O)[C@@H](C)[C@@H]7[C@@]6(C)CC[C@@H]54)C3)C(OC3OC(C)C(O)C(O)C3O)C2O)C(O)C(O)C1O` (stereo not given in full): the TGI was 6.38 µM in the assay on CCRF-CEM leukemia; 4.41 µM with NCI-H522 lung; 2.97 µM in the assay with SW-620 colon; 6.95 µM with SN12C renal; 22.8 µM with TK-10 renal; 4.76 µM with HCT-116 colon. The TGI came to 4.74 µM in the assay on HOP-62 NSCLC; 29.8 µM in the assay with OVCAR-3 ovarian; 4.1 µM in the assay with MALME-3M melanoma; 10.2 µM in the assay with RPMI-8226 leukemia; 3.89 µM with 786-0 renal. Besides, in the assay with SN12C renal, the GI50 was 2710 nM.

On to `O=[N+]([O-])c1ccccc1S(=O)(=O)N1CCCc2cc(Cl)ccc21`, for which the TGI in the assay with CCRF-CEM leukemia, with SW-620 colon, with SN12C renal, in the assay with TK-10 renal, with HCT-116 colon and in the assay with HOP-62 NSCLC was greater than 100 µM in each case. Also, the TGI in the assay on OVCAR-3 ovarian is greater than 100 µM; in the assay on MALME-3M melanoma it was greater than 100 µM; in the assay with RPMI-8226 leukemia, greater than 100 µM; in the assay on 786-0 renal, greater than 100 µM; with HT29 colon, 51.3 µM.

On to `CCCCCCCCCCCCCC(=O)OCC1OC(OC)C(NC(=O)N(CCCl)N=O)C(O)C1O` (stereo not given), for which the TGI in the assay with CCRF-CEM leukemia stood at 30.2 µM; with SW-620 colon, 30.9 µM; with SN12C renal, 76.3 µM; with TK-10 renal, 90.7 µM; in the assay with HCT-116 colon, 38.2 µM; in the assay with HOP-62 NSCLC, 75.9 µM. For the same compound, the TGI is 53.2 µM in the assay on OVCAR-3 ovarian; 56.8 µM in the assay with MALME-3M melanoma; 42.6 µM in the assay with RPMI-8226 leukemia; 17 µM in the assay with 786-0 renal; 50.4 µM in the assay on HT29 colon.

Turning to `Fc1ccc(C(=NCc2ccccc2)N2CCOCC2)cc1`, the TGI in the assay on CCRF-CEM leukemia, in the assay on SW-620 colon, in the assay with SN12C renal, in the assay on TK-10 renal, in the assay with HCT-116 colon and in the assay on HOP-62 NSCLC was greater than 100 µM throughout. Moreover, the TGI with OVCAR-3 ovarian, with MALME-3M melanoma, with RPMI-8226 leukemia, with 786-0 renal and in the assay with HT29 colon was greater than 100 µM in each case.

With `COC(=O)CCCc1ccc2c(c1)CCC2`, the TGI in the assay on CCRF-CEM leukemia, in the assay on NCI-H522 lung, in the assay on SW-620 colon, in the assay on SN12C renal, in the assay on TK-10 renal and with HCT-116 colon was greater than 100 µM in each case. For the same compound, the TGI in the assay on HOP-62 NSCLC, with OVCAR-3 ovarian, in the assay on MALME-3M melanoma, in the assay on RPMI-8226 leukemia and in the assay on 786-0 renal was greater than 100 µM each time.

In the case of `CCOC(=O)/C(O)=C(\C=N\C(=S)Nc1ccc(Cl)c(Cl)c1)C(=O)OCC`, the TGI in the assay with CCRF-CEM leukemia, in the assay on SW-620 colon, in the assay with SN12C renal, in the assay on TK-10 renal, in the assay on HCT-116 colon and with HOP-62 NSCLC was greater than 100 µM throughout. In addition, the TGI in the assay with OVCAR-3 ovarian, with MALME-3M melanoma, in the assay with RPMI-8226 leukemia, with 786-0 renal and with HT29 colon was greater than 100 µM each time.

`O=c1[nH]c2ccc(CC(=S)N3CCN(c4ccccc4)CC3)cc2s1`: the TGI in the assay with CCRF-CEM leukemia is greater than 100 µM; with SW-620 colon, greater than 100 µM; with SN12C renal, greater than 100 µM; in the assay on TK-10 renal it was greater than 100 µM; in the assay on HCT-116 colon it was greater than 100 µM; with HOP-62 NSCLC it was 50.1 µM. The TGI in the assay with OVCAR-3 ovarian was greater than 100 µM; in the assay with MALME-3M melanoma, 55.5 µM; with RPMI-8226 leukemia, 49.8 µM; in the assay on 786-0 renal, greater than 100 µM; in the assay on HT29 colon, greater than 100 µM.

As to `Cc1nn(-c2ccccc2)c(C)c1/C=N/NC(=O)c1sc(=S)n(-c2ccc(Cl)cc2)c1N`, the TGI in the assay on CCRF-CEM leukemia is greater than 100 µM; in the assay on SW-620 colon, greater than 100 µM; with SN12C renal, greater than 100 µM; with TK-10 renal, 14.4 µM; in the assay with HCT-116 colon, greater than 100 µM; with HOP-62 NSCLC it was greater than 100 µM. Also, the TGI in the assay with OVCAR-3 ovarian was greater than 100 µM; in the assay with MALME-3M melanoma it was greater than 100 µM; with RPMI-8226 leukemia, 7.73 µM; in the assay with 786-0 renal, 59.9 µM; in the assay on HT29 colon, greater than 100 µM.
